Measured values published in PubChem BioAssay AID1963856 (Molecular Pharmacology Branch, DTP, NCI, 2024).
Values joined by “and” are separate entries in the source; they are usually repeats but may differ in a detail not shown here. Equal entries are not always repeated.

Test system: LG0567-F671-PDC KRAS tumor spheroid viability
Assay: Anticancer human tumor LG0567-F671-PDC patient-derived lung adenocarcinoma cell line growth inhibition [KRAS2]
Settings: spheroids with HUVEC and MSC; for viability, T/C: stronger effect = lower value
Procedure, shortened: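 Combination screen of spheroid viability in tumor-cell co-cultures with endothelial (HUVEC) and mesenchymal stem cell stroma. Each agent was tested in half-log dilutions, topping at clinical Cmax or at 10 microM without a known Cmax.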

[1] = curve of first compound, second compound 0.1 µM
[2] = curve of first compound, second compound 0.316 µM
[3] = curve of first compound, second compound 1 µM
[4] = curve of first compound, second compound 3.16 µM
[5] = curve of first compound, second compound 10 µM
[6] = second compound 0.1 µM, first compound 0.01 µM
[7] = second compound 0.1 µM, first compound 0.0316 µM
[8] = second compound 0.1 µM, first compound 0.1 µM
[9] = second compound 0.1 µM, first compound 0.316 µM
[10] = second compound 0.1 µM, first compound 1 µM
[11] = second compound 0.1 µM, first compound 3.16 µM
[12] = second compound 0.316 µM, first compound 0.01 µM
[13] = second compound 0.316 µM, first compound 0.0316 µM
[14] = second compound 0.316 µM, first compound 0.1 µM
[15] = second compound 0.316 µM, first compound 0.316 µM
[16] = second compound 0.316 µM, first compound 1 µM
[17] = second compound 0.316 µM, first compound 3.16 µM
[18] = second compound 1 µM, first compound 0.01 µM
[19] = second compound 1 µM, first compound 0.0316 µM
[20] = second compound 1 µM, first compound 0.1 µM
[21] = second compound 1 µM, first compound 0.316 µM
[22] = second compound 1 µM, first compound 1 µM
[23] = second compound 1 µM, first compound 3.16 µM
[24] = second compound 3.16 µM, first compound 0.01 µM
[25] = second compound 3.16 µM, first compound 0.0316 µM
[26] = second compound 3.16 µM, first compound 0.1 µM
[27] = second compound 3.16 µM, first compound 0.316 µM
[28] = second compound 3.16 µM, first compound 1 µM
[29] = second compound 3.16 µM, first compound 3.16 µM
[30] = second compound 10 µM, first compound 0.01 µM
[31] = second compound 10 µM, first compound 0.0316 µM
[32] = second compound 10 µM, first compound 0.1 µM
[33] = second compound 10 µM, first compound 0.316 µM
[34] = second compound 10 µM, first compound 1 µM
[35] = second compound 10 µM, first compound 3.16 µM
[36] = second compound 0.1 µM, first compound 10 µM
[37] = second compound 0.316 µM, first compound 10 µM
[38] = second compound 1 µM, first compound 10 µM
[39] = second compound 3.16 µM, first compound 10 µM
[40] = second compound 10 µM, first compound 10 µM
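Note: drug exposure lasted seven days after spheroids formed for three days.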
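Throughout, for viability, T/C: 100% = DMSO vehicle control viability.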

| SMILES | IC50 [1] [nM] | IC50 [2] [nM] | IC50 [3] [nM] | IC50 [4] [nM] | viability, T/C [7] [%] | viability, T/C [8] [%] | viability, T/C [9] [%] | viability, T/C [10] [%] | viability, T/C [13] [%] | viability, T/C [14] [%] | viability, T/C [15] [%] | viability, T/C [16] [%] | viability, T/C [19] [%] | viability, T/C [20] [%] | viability, T/C [21] [%] | viability, T/C [22] [%] | viability, T/C [25] [%] | viability, T/C [26] [%] | viability, T/C [27] [%] | viability, T/C [28] [%] | further results |
| --- | --- | --- | --- | --- | --- | --- | --- | --- | --- | --- | --- | --- | --- | --- | --- | --- | --- | --- | --- | --- | --- |
| CC1COCCN1c1cc(-c2ccnn2C)c2ccnc(-c3ccn[nH]3)c2n1 (configuration not stated) + C=CC(=O)N1CCN(c2nc(=O)n(-c3c(C)ccnc3C(C)C)c3nc(-c4c(O)cccc4F)c(F)cc23)C(C)C1 | < 10 | < 10 | < 10 | < 10 | 18.8 | 16 | 14.2 | 11.2 | 18.6 | 14.2 | 11 | 9.77 | 19.3 | 14.3 | 11.3 | 9.8 | 14.9 | 12.8 | 11.3 | 9.54 | IC50 [5]: < 10 nM; viability, T/C [6]: 23.9%; viability, T/C [11]: 10.8%; viability, T/C [12]: 21.8%; viability, T/C [17]: 10.6%; viability, T/C [18]: 21.3%; viability, T/C [23]: 12.5%; viability, T/C [24]: 15.7%; viability, T/C [29]: 10.3%; viability, T/C [30]: 19.8%; viability, T/C [31]: 17.4%; viability, T/C [32]: 15.5%; viability, T/C [33]: 14.9%; viability, T/C [34]: 12.2%; viability, T/C [35]: 12.8% |
| CCN1CCN(Cc2ccc(Nc3ncc(F)c(-c4cc(F)c5nc(C)n(C(C)C)c5c4)n3)nc2)CC1 + C=CC(=O)N1CCN(c2nc(=O)n(-c3c(C)ccnc3C(C)C)c3nc(-c4c(O)cccc4F)c(F)cc23)C(C)C1 | < 3.16 | < 3.16 | < 3.16 | < 3.16 | 17.2 | 18.7 | 19.8 | 24.2 | 16.3 | 16.4 | 18.6 | 25.7 | 16.8 | 17.3 | 22 | 23.7 | 18.6 | 15.9 | 20.4 | 33.8 | IC50 [5]: < 3.16 nM; viability, T/C (second compound 0.1 µM, first compound 0.00316 µM): 21.6%; viability, T/C [6]: 21.6%; viability, T/C (second compound 0.316 µM, first compound 0.00316 µM): 21.3%; viability, T/C [12]: 19.6%; viability, T/C (second compound 1 µM, first compound 0.00316 µM): 21.3%; viability, T/C [18]: 22.3%; viability, T/C (second compound 3.16 µM, first compound 0.00316 µM): 20.4%; viability, T/C [24]: 21.1%; viability, T/C (second compound 10 µM, first compound 0.00316 µM): 22.3%; viability, T/C [30]: 20.6%; viability, T/C [31]: 22.3%; viability, T/C [32]: 20.6%; viability, T/C [33]: 27.9%; viability, T/C [34]: 12.8% |
| CCNC(=O)CC1N=C(c2ccc(Cl)cc2)c2cc(OC)ccc2-n2c(C)nnc21 (configuration not stated) + CC1OCC2(CCN(c3cnc(Sc4ccnc(N)c4Cl)c(N)n3)CC2)C1N | 278 | 39.9 | < 31.6 | < 31.6 | 69.1 | 71.4 | 46.2 | 30.9 | 48.4 | 50.9 | 32 | 20.2 | 34.5 | 28.7 | 21.5 | 11.2 | 22.7 | 18.6 | 12.2 | 7.87 | IC50 [5]: < 31.6 nM; viability, T/C [11]: 23.5%; viability, T/C [36]: 23.8%; viability, T/C [17]: 14.3%; viability, T/C [37]: 14.1%; viability, T/C [23]: 8.48%; viability, T/C [38]: 8.48%; viability, T/C [29]: 4.55%; viability, T/C [39]: 4.52%; viability, T/C [31]: 10.9%; viability, T/C [32]: 11.7%; viability, T/C [33]: 7.18%; viability, T/C [34]: 2.24%; viability, T/C [35]: 1.59%; viability, T/C [40]: 0.97% |
| O=C(c1cc(Cc2n[nH]c(=O)c3ccccc23)ccc1F)N1CCN(C(=O)C2CC2)CC1 + C=CC(=O)N1CCN(c2nc(=O)n(-c3c(C)ccnc3C(C)C)c3nc(-c4c(O)cccc4F)c(F)cc23)C(C)C1 | < 31.6 | < 31.6 | < 31.6 | < 31.6 | 24.8 | 21.5 | 23.1 | 26.7 | 23.1 | 22.8 | 25.1 | 21.5 | 25.8 | 25.6 | 25.2 | 23.6 | 25.1 | 27.8 | 25.7 | 23.8 | IC50 [5]: < 31.6 nM; viability, T/C [11]: 29.2%; viability, T/C [36]: 33.6%; viability, T/C [17]: 26.9%; viability, T/C [37]: 30.4%; viability, T/C [23]: 25.4%; viability, T/C [38]: 30.4%; viability, T/C [29]: 23.9%; viability, T/C [39]: 31.8%; viability, T/C [31]: 32.1%; viability, T/C [32]: 32.1%; viability, T/C [33]: 31.9%; viability, T/C [34]: 30%; viability, T/C [35]: 30.4%; viability, T/C [40]: 28.3% |
| COc1cc2nccc(Oc3ccc(NC(=O)C4(C(=O)Nc5ccc(F)cc5)CC4)cc3)c2cc1OC + C=CC(=O)N1CCN(c2nc(OCC3CCCN3C)nc3c2CCN(c2cccc4cccc(C)c24)C3)CC1CC#N | < 31.6 | < 31.6 | < 31.6 | < 31.6 | 23.5 | 22.9 | 26.6 | 18.4 | 25.2 | 24.8 | 28.4 | 17.2 | 30.9 | 27.6 | 23.7 | 20.9 | 13.2 | 18.7 | 11.4 | 17.6 | IC50 (curve of first compound, second compound 0.0316 µM): < 31.6 nM; viability, T/C (second compound 0.0316 µM, first compound 0.0316 µM): 27%; viability, T/C (second compound 0.0316 µM, first compound 0.1 µM): 35.9%; viability, T/C (second compound 0.0316 µM, first compound 0.316 µM): 23.9%; viability, T/C (second compound 0.0316 µM, first compound 1 µM): 20.4%; viability, T/C (second compound 0.0316 µM, first compound 3.16 µM): 17.8%; viability, T/C (second compound 0.0316 µM, first compound 10 µM): 52.5%; viability, T/C [11]: 10.2%; viability, T/C [36]: 45.3%; viability, T/C [17]: 10.2%; viability, T/C [37]: 41.3%; viability, T/C [23]: 13.3%; viability, T/C [38]: 33%; viability, T/C [29]: 1.46%; viability, T/C [39]: 1.76% |
| CC1OCC2(CCN(c3cnc(Sc4ccnc(N)c4Cl)c(N)n3)CC2)C1N (configuration not stated) | – | – | – | – | – | – | – | – | – | – | – | – | – | – | – | – | – | – | – | – | viability, T/C (compound 0.0316 µM): 81.9% and 81.1% and 73.7%; viability, T/C (compound 0.1 µM): 56.3% [middle of 20 runs]; viability, T/C (compound 0.316 µM): 38.5% [middle of 20 runs]; viability, T/C (compound 3.16 µM): 21.6% [middle of 20 runs]; viability, T/C (compound 10 µM): 15.5% [middle of 19 runs]; IC50 (compound alone, run of 07/26/2021): 134 nM [middle of 6 runs]; IC50 (curve of compound): 163 nM [middle of 5 runs] |
